Reference: US10905897B2, “Synergistic treatment methodologies using light therapy” (Neuro-Laser Foundation, Inc., priority 2016, dated 2021)

Assays:
[1] = system: postconcussive symptoms; details: patients with TBI; cited from earlier work
[2] = system: post-concussive syndrome; details: double-blind, placebo-controlled; cited from earlier work
[3] = system: depression; test: Clinical experience with ketamine treatment for depression; details: extensive clinical experience
[4] = system: nerves involved in polyneuropathy; test: Polyneuropathy treatment: ketamine administration followed by infrared light, nerve conduction; assay type: in vivo, human; details: then 810 nm and 980 nm light, 10.5 watts, continuous wave, 10 minutes, about 9-10 treatments
Description: In one embodiment, the inventive method can be employed to treat an exemplary case of polyneuropathy. In this example, a neurologist or other medical professional can conduct an EMG study (or other diagnostic procedure) to determine which nerve is involved, locate the distal portion of the nerve and the path through the body. Then, after the appropriate ketamine administration, as part of 910, the operator configures the system. For example, this can be accomplished by setting the wattage to 10.5 watts, setting the wavelengths to 810 nm and 980 nm, specifying continuous wave, setting duration at 10 minutes, and determining total joules to be about 6000. The operator would then activate the applicator over the nerve to be treated. Maintaining proximity and applying active circular techniques, the operator would move the applicator over the area of involvement, tracing the actual nerve or nerves involved. This might entail, for instance, moving from the hip down the leg to the foot, or from the hand up the arm to the shoulder. The active sweeping pattern is maintained throughout, while monitoring the temperature, light, duration and patient as well. The treatment is then reviewed with the patient and follow-up treatments are scheduled (usually approximately 9-10 treatments for this condition). […]

[5] = system: depressive symptoms and suicidal ideation; details: single infusion; cited from earlier work
[6] = system: tau protein; details: transgenic mice overexpressing tau, cited from earlier work
[7] = system: traumatic brain injury; details: two large U.S. studies; cited from earlier work

C[S+](CC[C@H](N)C(=O)O)C[C@H]1O[C@@H](n2cnc3c(N)ncnc32)[C@H](O)[C@@H]1O (some centres unmarked) [SAMe, S-adenosylmethionine]
improvement in clinical scores of postconcussive symptoms [1]: 77%

NC(=O)CN1CCCC1=O [piracetam, Piracetam]
symptoms of post-concussive syndrome, including headache and vertigo [2]: improved several symptoms

CNC1(c2ccccc2Cl)CCCCC1=O (centres unmarked) [ketamine]
patients treated for depression who see a favorable clinical response [3]: approximately 80%
increase in the conduction velocity of the nerves involved [4]: 20-30%
duration of symptom relief with single infusions [5]: 4 to 10 days

[Cl-].[Li+] [lithium chloride]
resulting blood levels ([6]; dietary lithium chloride): ≤ 0.2 milli-Equivalents per liter
levels of tau protein accumulation upon pathological examination [6]: significantly decreased

C[N+](C)(C)CCOP(=O)(O)OP(=O)([O-])OC[C@H]1O[C@@H](n2ccc(N)nc2=O)[C@H](O)[C@@H]1O [Citicholine]
benefit in TBI [7]: failed to demonstrate significant benefit
